# Values of other authors, collected in PMC6504684 (Frontiers in Pharmacology, 2019).
# Columns and labels:
# GABAβ receptors = conditions: cited from earlier work
# [1] = tested on: models of pain and inflammation; conditions: in vivo; cited from earlier work
# rat α9α10 nAChR = conditions: cited from earlier work
# α9α10 nAChR = conditions: cited from earlier work
substance,measurement,setting,value
Vc1.1,"effects via GABAβ receptors, in words",GABAβ receptors,can also be transmitted via inhibition of GABAβ receptors
same,"analgesic and anti-inflammatory effects, in words",[1],analgesic and anti-inflammatory effects
same,IC50,rat α9α10 nAChR,19 nM
same,"selectivity for the α9α10 nAChR, in words",α9α10 nAChR,α9α10 selective
